Reference: patent US11389415B2, “Methods of regulating cannabinoid receptor activity-related disorders and diseases” (The United States of America as represented by the …, priority 2012, dated 2022)

How the values were obtained:
[1] = tested on: HepG2 cells; experiment: [3H]-Thymidine incorporation assay in HepG2 cells; type: cell-based, human; details: for % Change in HepG2 cells ([3H]-thymidine incorporation): 1 μM; for effect of pretreatment on (R,R′)-Fen-stimulated mitogenesis: 1 h pretreatment then (R,R′)-Fen 24 h; for effect of pretreatment on anti-proliferative effect of (R,R′)-MNF: 1 h pretreatment then (R,R′)-MNF 24 h; for effect on cell proliferation: compound alone
Method: (§1) Maintenance and Treatment of Cell Lines. Human HepG2 hepatocarcinoma cells and human U87MG glioma cells (ATCC, Manassas, Va.) were maintained in EMEM medium supplemented with 1% L-glutamine, 1% sodium pyruvate, 1% penicillin/streptomycin, and 10% FBS (Hyclone, Logan, Utah). The human 1321N1 astrocytoma cells (European Collection of Cell Cultures, Sigma-Aldrich) were cultured in Dulbecco's modified Eagle's medium supplemented with 10% FBS and penicillin/streptomycin. All cell lines were cultured at 37° C. in 5% CO2, and the medium was replaced every 2-3 days.
(§2) Cells were seeded in 12-well plates at approximately 50,000 cells/well and incubated at 37° C. After 24 hours, the wells were rinsed with PBS and replaced with serum-free medium containing the appropriate concentration of the test compounds. After another 24-hour incubation at 37° C., 1 μCi of [^3H]-thymidine was added to each well and incubated at 37° C. for 16 hours. [^3H]-Thymidine incorporation into DNA was monitored after the cells were washed twice with PBS and then lysed in 600 μL of 0.1N NaOH for 30 minutes with shaking. The lysate was then mixed with 3 mL of liquid scintillation cocktail (Beckman Coulter, Inc., Brea, Calif.), and radioactivity was measured by liquid scintillation counting using Beckman Coulter LS6000IC Scintillation Counter. Data are shown as CPM incorporated compared to the control cells.

[2] = tested on: 1321N1 cells; experiment: Mitogenesis / [3H]-thymidine incorporation in 1321N1 cells; type: cell-based, human; details: for effect on proliferation / [3H]-thymidine incorporation: compound alone
Method: as §1
as §2, with “[^3H]-Thymidine Incorporation Assay. Cells” for “Cells”

[3] = tested on: U87MG cells; experiment: [3H]-Thymidine incorporation in U87MG cells; type: cell-based, human
Method: as §1, §2

[4] = tested on: HepG2 cells; experiment: cAMP accumulation in HepG2 cells; type: cell-based, human; details: β-agonists at 10 μM
Method: cAMP Accumulation. HepG2 cells were seeded in 96-well plates and grown to confluency. […] The levels of cAMP accumulated in cells were determined and normalized to the amount of protein per well.

[5] = tested on: Akt and ERK1/2; experiment: phosphorylation of Akt and ERK1/2 in HepG2 cells (Western blot); type: cell-based, human; details: 1 μM, 5, 10 and 30 minutes
Method: Western Blotting. Cells were lysed with RIPA buffer containing EGTA and EDTA (Boston BioProducts, Ashland, Mass.). The lysis buffer was mixed with a protease inhibitor cocktail (Sigma-Aldrich). Protein concentrations were measured using the bicinchoninic acid reagent (Thermo-Pierce Biotechnology, Inc., Rockford, Ill.). […] Western blots were performed according to standard methods. The visualization of immunoreactive bands was performed using the ECL Plus Western Blotting Detection System (GE Healthcare, NJ) and their quantification was done by volume densitometry using Image J software and normalization to β-actin. […] The antibodies were used at a dilution recommended by the manufacturer.

[6] = tested on: rat C6 glioma cells; experiment: 3H-Thymidine incorporation in rat C6 glioma cells; type: cell-based; details: for effect of preincubation on antiproliferative effect of MNF: C6 cells, ICI-118,551 3 nM, AM251 0.5 and 1 μM, AM630 0.5 μM, 30 minutes, then 20 nM MNF
Method: Cell culture. The rat-derived C6 glioma cell line was obtained from the American Type Culture Collection (Manassas, Va.). The cells were routinely maintained in DMEM supplemented with L-glutamine, 1% penicillin/streptomycin solution, and 10% FBS in a humidified CO2 incubator at 37° C.
3H-Thymidine incorporation. C6 glioma cells were seeded in 12-well plates at ˜5×10^4 cells/well and incubated for 24 hours followed by a second 24-hour incubation with various concentrations of MNF. Radiolabeled thymidine (10 Ci/mmol; PerkinElmer Life and Analytical Sciences, Waltham, Mass.) was added at 1 μCi per well for 16 hours and its incorporation into DNA was then measured. Each treatment group was performed in triplicate and three independent studies were carried out.

[7] = target: GPR55 (Homo sapiens, UniProt Q9Y2T6); experiment: Cellular uptake of TocriFluor T1117 in HepG2 cells; type: cell-based; design: host or cells: HepG2 hepatocarcinoma cells; details: for effect of pretreatment on T1117 incorporation: HepG2, AM630 1 μM, WIN 55,212-2 1 μM (1 hour), AM251 1 μM (30 minutes)
Sequence of GPR55 (Q9Y2T6 whole entry): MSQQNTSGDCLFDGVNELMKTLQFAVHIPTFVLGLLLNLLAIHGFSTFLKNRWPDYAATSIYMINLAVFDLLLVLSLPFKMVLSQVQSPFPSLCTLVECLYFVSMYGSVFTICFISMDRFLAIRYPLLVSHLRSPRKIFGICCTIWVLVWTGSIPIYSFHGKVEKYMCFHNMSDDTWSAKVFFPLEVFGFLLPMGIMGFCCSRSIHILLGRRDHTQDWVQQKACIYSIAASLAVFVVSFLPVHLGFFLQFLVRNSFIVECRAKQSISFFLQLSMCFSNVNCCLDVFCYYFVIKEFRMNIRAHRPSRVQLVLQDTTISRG

In the case of CC(C)NC[C@H](O)c1ccc(O)c(O)c1 [(R)-isoproterenol, reference compound], the EC50 ([1]; Homo sapiens, HepG2 cells, serum-free medium, 24 h, read-out: IC50/EC50 (μM): EC50 (ED50) for increase in [3H]-thymidine incorporation) is reported as 0.4 ± 0.08 µM, the “effect on proliferation / [3H]-thymidine incorporation” value [2] is reported as “reduced proliferation in 1321N1 cells” and the “effect on cellular proliferation” value ([3]; compound alone) is reported as “had no effect on U87MG cells”. For the same molecule, the “cAMP production” value [4] was “Neither (R)-isoproterenol nor (R,R′)-Fen, at 10 μM, elicited an increase in cAMP production”, the “Akt and ERK activation” value [5] was “induced a time-dependent increase in Akt and ERK activation” and the inhibition at 0.02 µM ([6]; Rattus norvegicus, 20 nM, 24 hours, read-out: inhibition of C6 cell growth / reduction in mitogenesis) was 10 to 15%.
With C[C@H](Cc1cccc2ccccc12)NC[C@H](O)c1cc(O)cc(O)c1 [(R,R′)-1-naphthylFen, (R,R′)-1-naphthylfenoterol] the “% Change in HepG2 cells ([3H]-thymidine incorporation)” value (from here on “% Change in HepG2 cells”) ([1]; 24 h) was “(R,R): −67.52%” and the IC50 ([1]; Homo sapiens, HepG2, read-out: IC50/EC50 (μM): IC50 for inhibition of [3H]-thymidine incorporation) was 0.21 ± 0.07 µM.
With C[C@H](Cc1ccc(N)cc1)NC[C@H](O)c1cc(O)cc(O)c1 [(R,R′)-aminoFen, (R,R′)-4′-aminofenoterol] the “% Change in HepG2 cells” value ([1]; 24 h) was “(R,R′): 54.37%”, the “fold more active than (R,R′)-Fen” value ([1]; [3H]-thymidine incorporation, HepG2) was 3 fold and the “effect on proliferation / [3H]-thymidine incorporation” value [2] was “markedly lower”.
C[C@@H](Cc1ccc(O)cc1)NC[C@H](O)c1cc(O)cc(O)c1 [(R,S′)-Fen, fenoterol] was tested, and the “% Change in HepG2 cells” value ([1]; 24 h) was 19.1%.
For COc1ccc(C[C@H](C)NC[C@H](O)c2cc(O)cc(O)c2)c2ccccc12 [(R,S′)-MNF, 4-methoxy-1-naphthylfenoterol], the “% Change in HepG2 cells” value ([1]; 24 h) was −68.1%.
With C[C@H](Cc1ccc(O)cc1)NC[C@@H](O)c1cc(O)cc(O)c1 [(S,R′)-Fen, fenoterol] the “% Change in HepG2 cells” value ([1]; 24 h) was 28.7%.
Cc1c(C(=O)NN2CCCCC2)nn(-c2ccc(Cl)cc2Cl)c1-c1ccc(I)cc1 [AM251, 1-(2,4-dichlorophenyl)-5-(4-iodophenyl)-4-methyl-N-(1-piperidyl)pyrazole-3-carboxamide, reference compound] was tested, and the “effect of pretreatment on (R,R′)-Fen-stimulated mitogenesis” value ([1]; HepG2 cells) was “had no impact on the mitogenic responses of (R,R′)-Fen”, the “effect of pretreatment on anti-proliferative effect of (R,R′)-MNF” value ([1]; HepG2 cells) was “completely inhibited the anti-proliferative effects of (R,R′)-MNF” and the “effect of pretreatment on anti-proliferative action of (R,R′)-MNF” value [3] was “partially blocked”. The “effect of preincubation on antiproliferative effect of MNF” value (from here on “effect of preincubation”) [6] was “rendered C6 cells refractory to the growth-inhibitory effect of MNF”.
With COc1ccc(C(=O)c2c(C)n(CCN3CCOCC3)c3cc(I)ccc23)cc1 [AM630, 1-[2-(morpholin-4-yl)ethyl]-2-methyl-3-(4-methoxybenzoyl)-6-iodoindole] the “effect of pretreatment on (R,R′)-Fen-stimulated mitogenesis” value ([1]; HepG2 cells) was “had no impact on the mitogenic responses of (R,R′)-Fen”, the “effect of pretreatment on anti-proliferative effect of (R,R′)-MNF” value ([1]; HepG2 cells) was “completely inhibited the anti-proliferative effects of (R,R′)-MNF” and the “effect of pretreatment on anti-proliferative action of (R,R′)-MNF” value [3] was “partially blocked”. The “effect of preincubation” value [6] was “had minimal effect against MNF signaling” and the “effect of pretreatment on T1117 incorporation” value [7] was “largely inactive”.
CCCCCCC(C)(C)c1ccc([C@@H]2C[C@H](O)CC[C@H]2CCCO)c(O)c1 [CP 55,940] was tested, and the “reduction of T1117 uptake” value ([7]; HepG2, 0.25 μM, 30-minutes pretreatment) was 2.5 fold.
For Cc1ccc(OCC(O)C(C)NC(C)C)c2c1CCC2 (stereo not drawn) [ICI 118,551, 3-(isopropylamino)-1-[(7-methyl-4-indanyl)oxy]butan-2-ol, reference compound], the “effect of pretreatment on (R,R′)-Fen-stimulated mitogenesis” value ([1]; HepG2 cells) was “significantly blocked (R,R′)-Fen-stimulated mitogenesis”, the “effect of pretreatment on anti-proliferative effect of (R,R′)-MNF” value ([1]; HepG2 cells) was “refractory to ICI 118,551 pretreatment” and the “effect on cell proliferation” value ([1]; HepG2 cells) was “showed no effect on cell proliferation”. For the same molecule, the “effect of pretreatment on (R,R′)-Fen signaling” value [2] was “blocked (R,R′)-Fen signaling in 1321N1 cells”, the “effect of pretreatment on anti-proliferative action of (R,R′)-MNF” value [3] was “inactive against the anti-proliferative action of (R,R′)-MNF in U87MG cells” and the “effect of preincubation” value [6] was “did not block the antiproliferative effect of MNF”.
In the case of Cc1c(C(=O)NN2CCCCC2)nn(-c2ccc(Cl)cc2Cl)c1-c1ccc(-c2ccc(CCCNC(=O)c3ccc4c(c3)C(=O)OC43c4ccc(N(C)C)cc4Oc4cc(N(C)C)ccc43)cc2)cc1 [T1117], the “time of half-maximum incorporation of T1117” value ([7]; HepG2 cells transfected with control siRNA) is reported as about 15 min and the EC50 ([7]; serum-depleted cells, 37° C., 2.5-100 nM, read-out: T1117 concentration of half-maximal cellular incorporation) is reported as about 8 nM.
CN(C)c1ccc2c(-c3ccc(C(=O)NCCCc4ccccc4)cc3C(=O)[O-])c3ccc(N(C)C)cc3[o+]c2c1 [TAMRA-PPA, 5′-TAMRA-3-phenylpropan-1-amine] was tested, and the “cellular incorporation of fluorescence” value ([7]; HepG2 cells, up to 1 hour) was “no significant incorporation of fluorescence”.
With Cc1c(C(=O)c2cccc3ccccc23)c2cccc3c2n1[C@H](CN1CCOCC1)CO3 [WIN 55,212-2, reference compound] the “effect of pretreatment on (R,R′)-Fen-stimulated mitogenesis” value ([1]; HepG2 cells) was “canceled out the growth-promoting action of fenoterol”, the “effect on cell proliferation” value ([1]; HepG2 cells) was “reduced cell proliferation” and the “effect of pretreatment on T1117 incorporation” value [7] was “markedly increased the rate of T1117 accumulation”.
